Source: patent publication US10413583B2, “Synthetic substrates for enzymes that catalyze reactions of modified cysteines and related methods” (The University of Chicago, priority 2016, dated 2019)

Legend:
[1] = Log P analysis of DPP-1/4/5; type: physicochemical; conditions: 1-octanol / Hepes buffer
Procedure: 2 μL of 1 mM of DPP-1/4/5 was dissolved in 500 μL of Hepes buffer in two 1.5 mL tubes. To one tube, 500 μL of 1-octanol was added and the tube was shaken for 10 min followed by keeping it undisturbed for 10 min. Then, 10 μL of aqueous phase from each tube was placed in a 96 well plate reader. To this, 190 μL of 1M NaOH was added and fluorescence intensities (λex 490/20 nm, λem 545/20 nm, Gain 80, read from bottom with height 4.5 mm, and sweep method) were measured at 15 second time intervals for 1 hr at room temperature. The fluorescence read out at saturation was used to calculate Log P values by following equation: log P=log(Foct/Faq) Foct=Ftotal−Faq where: Foct=Fluorescence of 1-octanol fraction; Faq=Fluorescence of the aqueous fraction after treatment with 1-octanol, and Ftotal=Fluorescence of the aqueous fraction with no treatment with 1-octanol.

APT2 = biological target: T1, APT2 (Homo sapiens, UniProt O95372); assay: In vitro kinetic assays and emission spectra of DPP-1, DPP-4, DPP-5 with APT2 (no detergent); type: biochemical
T1 construct: His-tag; made in house; host or cells: E. coli ROSETTA DE3
T1 sequence (O95372 whole entry): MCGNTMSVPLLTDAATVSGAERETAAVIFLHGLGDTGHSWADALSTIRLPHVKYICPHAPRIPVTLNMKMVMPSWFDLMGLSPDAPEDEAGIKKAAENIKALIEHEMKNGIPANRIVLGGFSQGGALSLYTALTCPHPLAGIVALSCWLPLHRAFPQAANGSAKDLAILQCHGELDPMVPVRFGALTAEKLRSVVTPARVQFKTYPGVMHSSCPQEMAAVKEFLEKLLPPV
Procedure: 150 μL of 2 μM DPP-1, DPP4 or DPP-5 in HEPES (20 mM, pH=7.4, 150 mM NaCl) were added to a 96-well optical bottom plate (Nunc 265301, Fisher Scientific, Pittsburgh, Pa., United States of America) at room temperature. 150 μL of either HEPES buffer alone or HEPES buffer containing 100 nM APT1 or APT2 (purification using previous methods), was added using a multi-channel pipette, resulting in a final concentration of 1 μM DPP-1/DPP4/DPP-5 and 50 nM APT1 or APT2. Fluorescence intensities (λex 490/20 nm, λem 545/20 nm, Gain 80, read from bottom with height 4.5 mm, and sweep method) were measured at 15 s time intervals for 30 min at 37° C. Following the 30 min kinetic run, emission spectra were obtained (λex 480/20 nm, Aem515-700 nm, Gain 80, read from bottom with height 4.5 mm, and sweep method).

## CCCCCCCCCCCCCCCC(=O)SC[C@@H](C(=O)NC)N(C)C(=O)Oc1ccc2c(c1)Oc1cc(N3CCN(C(=O)CCC(=O)O)CC3)ccc1C21OC(=O)c2ccccc21 (stereo partly drawn) [DPP-5]
[1]
  LogP: 0.79
APT2; 1 μM probe, 50 nM APT2, 30 minutes, absence of detergents
  enhancement in intensity of fluorescence signal: 350 fold
APT2; APT2, absence of detergents
  in vitro kinetics: more rapid turn-on response
